# Laboratory results: US9759709B1, “Devices and methods to monitor HIV-infection in presence of substance of abuse and/or therapeutic agent” (THE FLORIDA INTERNATIONAL UNIVERSITY BOARD OF TRUSTEES, priority 2016, dated 2017)
# Structures can show the parent of a compound that is named as a salt.
# How the values were obtained:
# Assay type in all cases: cell-based
# human astrocytes (HA) [1] = test: EIS measurement of charge transfer resistance (Rct) of HA grown on IDE-Au cultureware chip
# Procedure: A cultureware chip (CC) comprising eight wells was procured from Applied Biophysics (#8WCP PET arrays) and used to grow HA for HIV infection and subsequent drug treatments. Each well (substrate area of 0.8 cm^2 and maximum volume of 600 μL) of the CC comprised a sensing substrate configured to have gold-based IDE (IDE-Au; surface area: 3.985 mm^2). In each well and on the sensing substrate, the IDE-Au array was useful to grow a large number of cells (e.g., approximately between 4000 and 8000) and designed in such a way to perform electrochemical measurements without fluctuation.
# EIS was conducted in 400 μL of 5 mM PBS (pH 7.4) comprising 5 mM Fe (II)/Fe(III) as redox moieties using VMP3, a multi-channel potentiostat/galvanostats obtained from BioLogic Instruments. Each EIS measurement was made in sets of triplet and an average was used for analytical interpretation. Before processing the CC for cell culture, EIS measurement was made on […] each well. […] The cyclic voltammetry (CV) studies were also performed on CC using identical experimental conditions to validate results obtained using EIS.
# A portion of the Nyquist plot of cells grown on IDE-Au takes on a semicircle shape at higher frequency that corresponds to the electron-transfer limited process. The […] of this semicircle represents the charge transfer resistance, Rct, of the system. The semicircle is followed by a linear portion of the curve (45° to the axes) corresponding to the diffusion-controlled electron transfer process (Kaushik et al. 2010).
# For a biological system, the Rct value […] intra/extracellular cell properties, such as the electrical and physical properties of the HA. As a result, Rct was selected as the parameter for the assessment of HIV infection in HA and on treatments with Coc and drugs specific to both HIV and Coc. The EIS was performed on HA as a function of HIV infection doses which varies from 10 ng/mL to 30 ng/mL (FIG. 2A (b)).
# (§1) Primary HA were grown in the eight-well CC plate at a concentration of approximately 8,000 cells and infected with different concentrations (ranging from 10 ng/mL to 30 ng/mL) of HIV-1 using a previously described protocol (Atluri et al. 2013; Eugenin and Berman 2007). Each well was used for a separate treatment.
# After overnight infection, unabsorbed virus was washed away using PBS (pH 7.4), and the infected cells were cultured for 5 days in the presence or absence of Coc (1 μM). RA (2 μM) was added to the designated wells (specific to Coc) 2 h before each treatment involving Coc. The optimized dose of Coc selected for this study was 1 μM, which was based on our dose response study for cytotoxicity and HIV infectivity (Roy et al. 2015).
# On the 5th day, 100 μg (100 μL of 1 mg/mL) of Tef was added to wells specific to HIV and incubated for 7 days in total. The dose of Tef was selected on the basis of its toxicity and efficacy as reported in our previous publication (Jayant et al. 2015).
# To evaluate variations in HIV infection as a function of the Rct value (FIGS. 3A-3D) measured using EIS, an experiment was planned in 9 wells as described in FIGS. 3A-3D.
# human astrocytes (HA) [2] = test: MTT cell viability assay; settings: HA treated with Coc (1 μM), 7 days
# Procedure: The MTT cell viability assay was examined using a modified assay method as described by Rao et al (Kurapati et al. 2012). After 7 days of HIV-infection and/or treatment with an optimum concentration of Coc (1 μM), 6-well plates were given media change with 1 mL of medium. Then, 100 μL of MTT (100 mg MTT/20 ml PBS) was added to each well and the wells were incubated for 3 h at 37° C. Further, one volume of stop mix solution was added to each well. The plates were then rocked for about 2 h and centrifuged.
# The optical density of the solubilized formazan was determined spectrophotometrically measuring the absorbance at 550 nm after transferring into the 96-well plate. The optical density of formazan in each well is directly proportional to the cell viability and utilized for calculations.
# Considering cell viability as a major factor, HA toxicity was evaluated in terms of cell viability as a function of levels of HIV infection ranging from 10 ng/mL to 30 ng/mL using MTT assay.
# HIV-1Ba-L (clade B) = test: p24 antigen estimation by ELISA (level of HIV infection in HA)
# Description: Primary HA were purchased from ScienCell Research Laboratories (Carlsbad, Calif.; Cat. #1800-5) and grown in astrocyte medium purchased from ScienCell Laboratories (Cat. #1801) comprising 2% of fetal bovine serum (ScienCell Cat. #0010), astrocyte growth supplement (ScienCell Cat. #1852), and penicillin/streptomycin (ScienCell Cat. #0503). HIV-1Ba-L (clade B) (NIH AIDS Reagent Program Cat. #510) was obtained through AIDS Research and Reference Reagent Program, Division of AIDS, NIAID, NIH. The Cocaine hydrochloride-Sigma (Cat# C5776), rimcazole dihydrochloride-Tocris (1497, CAS#75859-03-9), and tenofovir disoproxil fumarate-Sigma (1643656; CAS #202138-50-9) were also obtained for this research.
# as §1, with “treatment. […]” for “treatment.”
# 450 μl of undiluted HA culture supernatant was mixed with 50 μL of lysing buffer. […] After incubation, 100 μL of stop solution was added to each well and the optical density of each well was read at 450 nm using a microplate reader (Yndart et al. 2015). […]
compound,measurement,setting,value
"COC(=O)[C@H]1[C@@H](OC(=O)c2ccccc2)C[C@@H]2CC[C@H]1N2C [Coc, cocaine]",Rct,"human astrocytes (HA) [1]; HA+Coc (1 μM), normal HA 48",21 KS
same,Rct,human astrocytes (HA) [1]; HA+HIV+Coc,140 KS
same,cell viability,human astrocytes (HA) [2],~85%
"C[C@@H]1CN(CCCn2c3ccccc3c3ccccc32)C[C@H](C)N1 [RA, rimcazole dihydrochloride]",level of HIV infection (p24 antigen),HIV-1Ba-L (clade B); HIV-infected HA with Coc and RA (2 μM) vs cells treated with HIV and Coc alone,not statistically significant
same,Rct,human astrocytes (HA) [1]; HA+Coc+RA (2 μM),34 KΩ
same,Rct,human astrocytes (HA) [1]; HA+HIV+Coc+RA,105 KΩ
"CC(C)OC(=O)OCOP(=O)(CO[C@H](C)Cn1cnc2c(N)ncnc21)OCOC(=O)OC(C)C.O=C(O)/C=C/C(=O)O [Tef, tenofovir disoproxil fumarate]",level of HIV infection (p24 antigen),HIV-1Ba-L (clade B); HIV-infected HA treated with Tef (100 μg) vs HIV-infected cells alone,significant reduction
same,Rct,human astrocytes (HA) [1]; HA+HIV+Coc+Tef,93 KS
same,Rct,"human astrocytes (HA) [1]; HIV-infected HA (20 ng/mL) after Tef, HA+HIV without drug 210",150 KΩ
